According to the supplement of paper PMC10307832:

Experiments:
Assay in all cases: relative viability (nuclei count vs DMSO), 5 days (fraction); higher = more cells survive
[1] = compound: N#CC[C@H](C1CCCC1)n1cc(-c2ncnc3[nH]ccc23)cn1 [Ruxolitinib] + CCNC(=O)c1noc(-c2cc(C(C)C)c(O)cc2O)c1-c1ccc(CN2CCOCC2)cc1 [Luminespib] (partner 0.01 µM)
Outline: (§1)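 Lung cancer cell lines, seeded in 1536-well plates, were treated the following day by pin tool with a single drug or with five library-drug doses (not always all listed) in √10 steps on top of a fixed anchor-drug dose. Cells were fixed and nuclei stained in one step after 5 days, and nuclei were counted. Relative viability is the nuclei count for treated wells divided by that for vehicle wells, reported as medians of duplicate plates.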

[2] = compound: N#CC[C@H](C1CCCC1)n1cc(-c2ncnc3[nH]ccc23)cn1 [Ruxolitinib] + Cc1nc(Nc2ncc(C(=O)Nc3c(C)cccc3Cl)s2)cc(N2CCN(CCO)CC2)n1 [Dasatinib] (partner 0.075 µM)
Outline: as §1

[3] = compound: CS(=O)(=O)c1ccc(C(=O)Nc2ccc(Cl)c(-c3ccccn3)c2)c(Cl)c1 [Vismodegib] + CS(=O)(=O)CCNCc1ccc(-c2ccc3ncnc(Nc4ccc(OCc5cccc(F)c5)c(Cl)c4)c3c2)o1 [Lapatinib] (partner 2 µM)
Outline: as §1

[4] = compound: CS(=O)(=O)c1ccc(-c2cnc(N)c(C(=O)Nc3ccccc3)n2)cc1 [VE-821] + N=C(N)NC(=N)NCCc1ccccc1 [Phenformin] (partner 250 µM)
Outline: as §1

UMC-11 gave a relative viability ([1]; first compound 0.08 µM) of 1.04, a relative viability ([1]; first compound 0.253 µM) of 1.03 and a relative viability ([1]; first compound 0.8 µM) of 1.26. It also gave a relative viability ([1]; first compound 2.53 µM) of 1.1, a relative viability ([1]; first compound 8 µM) of 0.978 and a relative viability ([2]; first compound 0.08 µM) of 0.437. It also gave a relative viability ([2]; first compound 0.253 µM) of 0.492, a relative viability ([2]; first compound 0.8 µM) of 0.524 and a relative viability ([2]; first compound 2.53 µM) of 0.508. It also gave a relative viability ([2]; first compound 8 µM) of 0.512, a relative viability ([3]; first compound 0.08 µM) of 0.915 and a relative viability ([3]; first compound 0.253 µM) of 0.971. The relative viability ([3]; first compound 0.8 µM) was 0.893, the relative viability ([3]; first compound 2.53 µM) was 0.974 and the relative viability ([3]; first compound 8 µM) was 0.598. For the same cell line, the relative viability ([4]; first compound 0.08 µM) was 0.335, the relative viability ([4]; first compound 0.253 µM) was 0.301 and the relative viability ([4]; first compound 0.8 µM) was 0.331. It also gave a relative viability ([4]; first compound 2.53 µM) of 0.341 and a relative viability ([4]; first compound 8 µM) of 0.265.
